Measured values: ChEMBL document CHEMBL3045723, “Synthesis of novel 3-(5-sulfanyl-1,3,4-oxadiazol-2-yl)-2H-chromen-2-one condensed s-triazinyl piperazines and piperidines as antimicrobial agents” (2012)
Values after ≈ are worked out from the molar mass of the structure shown.

Assays:
Assay type in all cases: functional
Candida albicans [1] = experiment: Antifungal activity against Candida albicans MTCC 183 after 48 hr; details: MTCC 183, 48 h
Aspergillus niger [2] = experiment: Antifungal activity against Aspergillus niger MTCC 282 after 48 hr; details: MTCC 282, 48 h
Candida albicans [3] = experiment: Antifungal activity against Candida albicans MTCC 183 after 24 hr by agar disk diffusion test
Aspergillus niger [4] = experiment: Antifungal activity against Aspergillus niger MTCC 282 after 24 hr by agar disk diffusion test
Shigella flexneri [5] = experiment: Antibacterial activity against Shigella flexneri after 24 hr
Proteus vulgaris [6] = experiment: Antibacterial activity against Proteus vulgaris MTCC 1771 after 24 hr; details: MTCC 1771, 24 h
Salmonella typhi [7] = experiment: Antibacterial activity against Salmonella enterica subsp. enterica serovar Typhi MTCC 733 after 24 hr; details: MTCC 733, 24 h
Shigella flexneri [8] = experiment: Antibacterial activity against Shigella flexneri after 24 hr by agar disk diffusion test
Proteus vulgaris [9] = experiment: Antibacterial activity against Proteus vulgaris MTCC 1771 after 24 hr by agar disk diffusion test
Salmonella typhi [10] = experiment: Antibacterial activity against Salmonella enterica subsp. enterica serovar Typhi MTCC 733 after 24 hr by agar disk diffusion test
Klebsiella pneumoniae [11] = experiment: Antibacterial activity against Klebsiella pneumoniae MTCC 109 after 24 hr by agar disk diffusion test
Pseudomonas aeruginosa [12] = experiment: Antibacterial activity against Pseudomonas aeruginosa MTCC 741 after 24 hr by agar disk diffusion test
Escherichia coli [13] = experiment: Antibacterial activity against Escherichia coli MTCC 739 after 24 hr by agar disk diffusion test
Bacillus cereus [14] = experiment: Antibacterial activity against Bacillus cereus MTCC 619 after 24 hr by agar disk diffusion test
Staphylococcus aureus [15] = experiment: Antibacterial activity against Staphylococcus aureus MTCC 96 after 24 hr by agar disk diffusion test
Klebsiella pneumoniae [16] = experiment: Antibacterial activity against Klebsiella pneumoniae MTCC 109 after 24 hr; details: MTCC 109, 24 h
Pseudomonas aeruginosa [17] = experiment: Antibacterial activity against Pseudomonas aeruginosa MTCC 741
Escherichia coli [18] = experiment: Antibacterial activity against Escherichia coli MTCC 739 after 24 hr; details: MTCC 739, 24 h
Bacillus cereus [19] = experiment: Antibacterial activity against Bacillus cereus MTCC 619 after 24 hr; details: MTCC 619, 24 h
Staphylococcus aureus [20] = experiment: Antibacterial activity against Staphylococcus aureus MTCC 96 after 24 hr; details: MTCC 96, 24 h

SMILES | MIC (Candida albicans [1]) [µg/mL] | MIC (Aspergillus niger [2]) [µg/mL] | inhibition zone (IZ) (Candida albicans [3]) [mm] | inhibition zone (IZ) (Aspergillus niger [4]) [mm] | MIC (Shigella flexneri [5]) [µg/mL] | MIC (Proteus vulgaris [6]) [µg/mL] | MIC (Salmonella typhi [7]) [µg/mL] | inhibition zone (IZ) (Shigella flexneri [8]) [mm] | inhibition zone (IZ) (Proteus vulgaris [9]) [mm] | inhibition zone (IZ) (Salmonella typhi [10]) [mm] | inhibition zone (IZ) (Klebsiella pneumoniae [11]) [mm] | inhibition zone (IZ) (Pseudomonas aeruginosa [12]) [mm] | inhibition zone (IZ) (Escherichia coli [13]) [mm] | inhibition zone (IZ) (Bacillus cereus [14]) [mm] | inhibition zone (IZ) (Staphylococcus aureus [15]) [mm] | MIC (Klebsiella pneumoniae [16]) [µg/mL] | MIC (Pseudomonas aeruginosa [17]) [µg/mL] | MIC (Escherichia coli [18]) [µg/mL] | MIC (Bacillus cereus [19]) [µg/mL] | MIC (Staphylococcus aureus [20]) [µg/mL]
CCN1CCN(c2nc(Oc3cccc4cccnc34)nc(Sc3nnc(-c4cc5ccccc5oc4=O)o3)n2)CC1 | 100 (≈ 172 µM) | 100 (≈ 172 µM) | 13 | <10 | 100 (≈ 172 µM) | 100 (≈ 172 µM) | 100 (≈ 172 µM) | 20 | 12 | 16 | 14 | 18 | 16 | 13 | 15 | 100 (≈ 172 µM) | 100 (≈ 172 µM) | 100 (≈ 172 µM) | 100 (≈ 172 µM) | 100 (≈ 172 µM)
O=c1oc2ccccc2cc1-c1nnc(Sc2nc(Oc3cccc4cccnc34)nc(N3CCN(c4cccc(C(F)(F)F)c4)CC3)n2)o1 | 50 (≈ 71.8 µM) | 25 (≈ 35.9 µM) | 21 | 24 | 100 (≈ 144 µM) | 25 (≈ 35.9 µM) | 50 (≈ 71.8 µM) | 21 | 23 | 21 | 21 | 21 | 22 | 24 | 24 | 25 (≈ 35.9 µM) | 25 (≈ 35.9 µM) | 50 (≈ 71.8 µM) | 12.5 (≈ 17.9 µM) | 12.5 (≈ 17.9 µM)
O=c1oc2ccccc2cc1-c1nnc(Sc2nc(Oc3cccc4cccnc34)nc(N3CCN(c4ccccc4)CC3)n2)o1 | 100 (≈ 159 µM) | 100 (≈ 159 µM) | <10 | <10 | 100 (≈ 159 µM) | 100 (≈ 159 µM) | 100 (≈ 159 µM) | <10 | 15 | <10 | 11 | 13 | <10 | 12 | <10 | 100 (≈ 159 µM) | 100 (≈ 159 µM) | 100 (≈ 159 µM) | 100 (≈ 159 µM) | 100 (≈ 159 µM)
O=c1oc2ccccc2cc1-c1nnc(Sc2nc(Oc3cccc4cccnc34)nc(N3CCN(c4ccccc4F)CC3)n2)o1 | 100 (≈ 155 µM) | 100 (≈ 155 µM) | 19 | 21 | 100 (≈ 155 µM) | 25 (≈ 38.7 µM) | 50 (≈ 77.3 µM) | 19 | 22 | 20 | 20 | 19 | 23 | 20 | 19 | 50 (≈ 77.3 µM) | 100 (≈ 155 µM) | 25 (≈ 38.7 µM) | 50 (≈ 77.3 µM) | 100 (≈ 155 µM)
CN1CCN(c2nc(Oc3cccc4cccnc34)nc(Sc3nnc(-c4cc5ccccc5oc4=O)o3)n2)CC1 | 100 (≈ 176 µM) | 100 (≈ 176 µM) | 11 | <10 | 100 (≈ 176 µM) | 100 (≈ 176 µM) | 100 (≈ 176 µM) | 18 | 11 | 16 | 12 | 19 | 12 | <10 | 13 | 100 (≈ 176 µM) | 100 (≈ 176 µM) | 100 (≈ 176 µM) | 100 (≈ 176 µM) | 100 (≈ 176 µM)
CC1CC(C)CN(c2nc(Oc3cccc4cccnc34)nc(Sc3nnc(-c4cc5ccccc5oc4=O)o3)n2)C1 (stereo not given) | 100 (≈ 173 µM) | 25 (≈ 43.1 µM) | 16 | 23 | 25 (≈ 43.1 µM) | 100 (≈ 173 µM) | 12.5 (≈ 21.6 µM) | 24 | 19 | 23 | 16 | 22 | 20 | 21 | 22 | 100 (≈ 173 µM) | 12.5 (≈ 21.6 µM) | 50 (≈ 86.3 µM) | 50 (≈ 86.3 µM) | 25 (≈ 43.1 µM)
O=c1oc2ccccc2cc1-c1nnc(Sc2nc(Oc3cccc4cccnc34)nc(N3CCCCC3)n2)o1 | 100 (≈ 181 µM) | 100 (≈ 181 µM) | <10 | <10 | 100 (≈ 181 µM) | 100 (≈ 181 µM) | 100 (≈ 181 µM) | <10 | <10 | 14 | 20 | 15 | <10 | <10 | 11 | 50 (≈ 90.6 µM) | 100 (≈ 181 µM) | 100 (≈ 181 µM) | 100 (≈ 181 µM) | 100 (≈ 181 µM)
O=c1oc2ccccc2cc1-c1nnc(Sc2nc(Oc3cccc4cccnc34)nc(N3CCC(Cc4ccccc4)CC3)n2)o1 | 100 (≈ 156 µM) | 100 (≈ 156 µM) | 13 | <10 | 100 (≈ 156 µM) | 100 (≈ 156 µM) | 100 (≈ 156 µM) | 11 | <10 | 14 | <10 | <10 | 12 | 13 | 16 | 100 (≈ 156 µM) | 100 (≈ 156 µM) | 100 (≈ 156 µM) | 100 (≈ 156 µM) | 100 (≈ 156 µM)
O=c1oc2ccccc2cc1-c1nnc(Sc2nc(Oc3cccc4cccnc34)nc(N3CCN(c4cccc(Cl)c4)CC3)n2)o1 | 50 (≈ 75.4 µM) | 100 (≈ 151 µM) | 20 | 20 | 100 (≈ 151 µM) | 100 (≈ 151 µM) | 100 (≈ 151 µM) | 19 | 19 | 17 | 15 | 14 | 25 | 17 | 17 | 100 (≈ 151 µM) | 100 (≈ 151 µM) | 25 (≈ 37.7 µM) | 100 (≈ 151 µM) | 100 (≈ 151 µM)
COc1ccc(N2CCN(c3nc(Oc4cccc5cccnc45)nc(Sc4nnc(-c5cc6ccccc6oc5=O)o4)n3)CC2)cc1 | 50 (≈ 75.9 µM) | 25 (≈ 38 µM) | 22 | 24 | 50 (≈ 75.9 µM) | 100 (≈ 152 µM) | 12.5 (≈ 19 µM) | 22 | 18 | 24 | 19 | 23 | 17 | 23 | 22 | 100 (≈ 152 µM) | 12.5 (≈ 19 µM) | 100 (≈ 152 µM) | 12.5 (≈ 19 µM) | 25 (≈ 38 µM)
